From ChEMBL document CHEMBL1221341, “[17(20)E]- and [17(20)Z]-pregna-5,17(20)-dien-21-oylamides. Facile synthesis and primary evaluation for cancer cells proliferation” (Bioorg Med Chem Lett, 2010)
Calls of active or inactive are those of the source. The calls are words filed in the database; no cut-off is given here.

Tests used:
Type in all cases: functional, cell-based
LNCaP [1] = test: Antiproliferative activity against human LNCAP cells at 0.1 to 0.3 uM after 48 hrs by MTT assay
LNCaP [2] = test: Antiproliferative activity against human LNCAP cells at 30 uM after 48 hrs by MTT assay
MCF7 [3] = test: Antiproliferative activity against human MCF7 cells at 30 uM after 48 hrs by MTT assay
MCF7 [4] = test: Antiproliferative activity against human MCF7 cells at 0.1 to 0.3 uM after 48 hrs by MTT assay

C[C@]12CC[C@H](O)CC1=CC[C@@H]1[C@@H]2CC[C@]2(C)/C(=C/C(=O)NCCO)CC[C@@H]12
Activity (LNCaP [1]): inactive | Activity (LNCaP [2]): Active | Activity (MCF7 [3]): Active | Activity (MCF7 [4]): inactive

C[C@]12CC[C@H](O)CC1=CC[C@@H]1[C@@H]2CC[C@]2(C)/C(=C/C(=O)N3CCCC3)CC[C@@H]12
Activity (LNCaP [1]): Active

C[C@]12CC[C@H](O)CC1=CC[C@@H]1[C@@H]2CC[C@]2(C)/C(=C/C(N)=O)CC[C@@H]12
Activity (LNCaP [1]): inactive | Activity (LNCaP [2]): Active | Activity (MCF7 [3]): Active | Activity (MCF7 [4]): inactive

C[C@]12CC[C@H](O)CC1=CC[C@@H]1[C@@H]2CC[C@]2(C)/C(=C\C(=O)N3CCCC3)CC[C@@H]12
Activity (MCF7 [4]): inactive
